Values joined by “and” are separate entries in the source; they are usually repeats but may differ in a detail not shown here. Equal values may be shown once. Starred links: 1 amine or outer side, 2 acyl side, 3 side chain; linkers in the order of their positions; H or OH if unused. Positions of bridges follow the written chain, without caps; N, C: chain ends. Non-standard residues stand in square brackets, D forms with d. Residues, ends and D or L forms follow the SMILES beside them. TATA = O=C(CC[*:1])N1CN(C(=O)CC[*:2])CN(C(=O)CC[*:3])C1; Phe(4-F) = N[C@@H](Cc1ccc(F)cc1)C(=O)O; β3hR = N=C(N)NCCC[C@H](N)CC(=O)O
Experiments:
Test in all cases: Specificity profiling, residual protease activity
Type in all cases: biochemical
factor XIa = target: T1, factor XIa (Homo sapiens, UniProt P03951)
T1 construct: 1.5 nM, factor XIa (Innovative Research) 6 nM, plasma kallikrein (Innovative Research) 0.25; purchased Innovative Research
T1 sequence (P03951 388-625 limits assumed): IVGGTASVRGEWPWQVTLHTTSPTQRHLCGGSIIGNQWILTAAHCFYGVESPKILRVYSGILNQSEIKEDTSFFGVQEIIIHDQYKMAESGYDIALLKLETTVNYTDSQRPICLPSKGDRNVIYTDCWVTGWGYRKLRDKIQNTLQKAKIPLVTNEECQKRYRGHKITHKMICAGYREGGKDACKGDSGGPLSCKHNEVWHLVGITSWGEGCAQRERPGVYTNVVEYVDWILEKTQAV
T1 sequence (P03951 19-387 limits assumed): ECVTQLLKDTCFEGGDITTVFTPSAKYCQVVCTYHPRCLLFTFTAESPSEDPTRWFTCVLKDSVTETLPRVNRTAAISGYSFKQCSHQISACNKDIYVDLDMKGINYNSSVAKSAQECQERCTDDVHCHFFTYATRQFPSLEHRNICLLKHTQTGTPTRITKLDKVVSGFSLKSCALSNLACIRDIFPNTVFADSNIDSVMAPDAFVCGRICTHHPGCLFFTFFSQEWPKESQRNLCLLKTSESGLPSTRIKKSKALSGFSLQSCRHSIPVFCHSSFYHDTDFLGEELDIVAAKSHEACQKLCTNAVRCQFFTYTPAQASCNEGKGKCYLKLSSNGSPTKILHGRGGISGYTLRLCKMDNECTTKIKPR
Procedure: (§1) Protease inhibition assays
(§2) The inhibitory activity of peptides was determined by measuring the residual protease activity with a fluorogenic substrate. The assay was performed in buffer containing 10 mM Tris-Cl, pH […]
(§3) 1% (v/v) DMSO in a volume of 150 µl. […]
(§4) HFXIIAB) were used at final concentrations of 0.4 nM. The reaction was pipetted as follows: 50 µl of bicyclic peptide in assay buffer were added to 50 µl of FXIIa in assay buffer and incubated for 10 minutes at 25°C before 50 µl of 150 µM fluorogenic substrate in assay buffer were added to measure the residual protease activity with an Infinite M200Pro fluorescence plate reader (excitation at 368 nm, emission at 467 nm; Tecan) for a period of 30 minutes with a read every minute at 25°C. The Tecan software i-control (version 1.1) was used for data analysis. Stock solutions of 1 mM bicyclic peptide were prepared by either dissolving the unpurified cyclization reaction with water or by dissolving purified and lyophilized peptide in water. The bicyclic peptides were serially diluted two-fold using assay buffer. Sigmoidal curves were fitted to the data using the following dose response equation (1), wherein x = peptide concentration, y = % protease activity, and p = Hill slope. IC50 values were derived from the fitted curve.
(§5) The inhibition constants (Ki) were calculated according to the equation of Cheng and Prusoff, Ki = IC50/(1+([S]0/Km), wherein IC50 is the functional strength of the inhibitor, [S]0 is the total substrate concentration, and Km is the Michaelis-Menten constant. […]
(§6) For testing the specificity of the bicyclic peptides, the following final concentrations of human serine proteases were used: tPA (Molecular Innovations) 7.5 nM, uPA (Molecular Innovations) 1.5 nM, factor XIa (Innovative Research) 6 nM, plasma kallikrein (Innovative Research) 0.25 nM, thrombin (Molecular Innovations) 1 nM, plasmin (Molecular Innovations) 2.5 nM, trypsin (Molecular Innovations) 0.05 nM, factor VIIa (Haematologic Technologies) 50 nM, factor Xa […]
(§7) (Haematologic Technologies) 6 nM, and activated protein C (APC) 5 nM. Two-fold dilutions of the peptide were prepared that ranged from 0.04 to 40 µM. The following fluorogenic substrates were used at a final concentration of 50 µM: Z-Phe-Arg-AMC (Bachem) for plasma kallikrein; Boc-Phe-Ser-Arg-AMC (Bachem) for factor XIa; Z-Gly-Gly-Arg-AMC (Bachem) for tPA, uPA, thrombin, and trypsin; H-D-Val-Leu-Lys-AMC (Bachem) for plasmin; and D-Phe-Pro-Arg-ANSNH-C4H9 (Haematologic Technologies) for FVIIa and FXa. For APC, the chromogenic substrate pyroGlu-Pro-Arg-pNA (S2366) was used at a concentration of 400 µM. […]

plasmin = target: T2, plasmin (Homo sapiens, UniProt P00747)
T2 construct: nM, thrombin (Molecular Innovations) 1 nM, plasmin (Molecular Innovations) 2.5 nM, trypsin; purchased Molecular Innovations
T2 sequence (P00747 581-810 limits assumed): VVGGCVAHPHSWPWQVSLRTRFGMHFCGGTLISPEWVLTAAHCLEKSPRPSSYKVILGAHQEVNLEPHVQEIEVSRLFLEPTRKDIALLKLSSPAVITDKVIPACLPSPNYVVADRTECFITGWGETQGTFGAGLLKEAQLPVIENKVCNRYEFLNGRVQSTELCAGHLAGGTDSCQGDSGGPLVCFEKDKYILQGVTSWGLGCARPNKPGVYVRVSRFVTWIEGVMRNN
T2 sequence (P00747 97-580 limits assumed): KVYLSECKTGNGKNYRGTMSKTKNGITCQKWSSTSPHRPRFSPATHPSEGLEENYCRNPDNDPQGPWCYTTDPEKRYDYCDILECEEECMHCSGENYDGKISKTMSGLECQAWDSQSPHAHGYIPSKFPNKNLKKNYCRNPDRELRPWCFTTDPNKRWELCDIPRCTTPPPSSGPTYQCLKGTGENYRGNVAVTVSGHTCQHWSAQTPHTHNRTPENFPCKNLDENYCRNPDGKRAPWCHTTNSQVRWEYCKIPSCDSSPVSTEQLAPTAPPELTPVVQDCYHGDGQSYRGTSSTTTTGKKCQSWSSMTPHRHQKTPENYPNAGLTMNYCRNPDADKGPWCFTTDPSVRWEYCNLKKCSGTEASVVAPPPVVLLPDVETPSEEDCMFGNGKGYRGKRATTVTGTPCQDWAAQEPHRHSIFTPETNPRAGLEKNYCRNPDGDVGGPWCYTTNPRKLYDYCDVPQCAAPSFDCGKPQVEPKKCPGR
Procedure: as §1, §2, §3, §4, §5, §6, §7

trypsin = target: T3, trypsin (Homo sapiens, UniProt P07477)
T3 construct: purchased Molecular Innovations
Procedure: as §1, §2, §3, §4, §5, §6, §7

plasma kallikrein = target: T4, plasma kallikrein (Homo sapiens, UniProt P03952)
T4 construct: 1.5 nM, factor XIa (Innovative Research) 6 nM, plasma kallikrein (Innovative Research) 0.25; purchased Innovative Research
T4 sequence (P03952 391-638 limits assumed): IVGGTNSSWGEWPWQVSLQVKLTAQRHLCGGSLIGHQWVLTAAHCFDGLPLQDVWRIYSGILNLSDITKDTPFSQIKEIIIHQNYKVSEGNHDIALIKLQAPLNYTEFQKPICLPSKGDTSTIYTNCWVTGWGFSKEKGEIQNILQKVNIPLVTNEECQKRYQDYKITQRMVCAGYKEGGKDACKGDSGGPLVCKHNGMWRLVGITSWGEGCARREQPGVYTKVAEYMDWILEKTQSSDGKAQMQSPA
T4 sequence (P03952 20-390 limits assumed): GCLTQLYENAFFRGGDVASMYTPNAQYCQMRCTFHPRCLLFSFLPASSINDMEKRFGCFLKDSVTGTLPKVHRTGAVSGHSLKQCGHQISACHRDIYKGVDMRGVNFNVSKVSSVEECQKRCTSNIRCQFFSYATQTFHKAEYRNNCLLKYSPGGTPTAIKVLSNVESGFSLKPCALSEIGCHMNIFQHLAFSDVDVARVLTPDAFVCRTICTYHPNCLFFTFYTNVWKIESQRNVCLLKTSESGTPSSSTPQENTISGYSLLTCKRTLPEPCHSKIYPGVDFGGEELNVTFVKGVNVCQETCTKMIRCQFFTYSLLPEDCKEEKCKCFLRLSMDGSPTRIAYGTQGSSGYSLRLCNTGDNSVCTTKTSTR
Procedure: as §1, §2, §3, §4, §5, §6, §7

[1] = inhibitor 39.0625 nM, 0.0390625 µM
[2] = inhibitor 78.125 nM, 0.078125 µM
[3] = inhibitor 156.25 nM, 0.15625 µM
[4] = inhibitor 40000 nM (40 µM), 40 µM

In the case of `CC(C)C[C@@H]1NC(=O)[C@H](CCC(N)=O)NC(=O)[C@H](Cc2c[nH]cn2)NC(=O)[C@@H]2CSCCC(=O)N3CN(CN(C3)C(=O)CCSC[C@H](NC(=O)[C@@H](CO)NC(=O)[C@H](N)CCCNC(=N)N)C(=O)N[C@@H](Cc3ccc(F)cc3)C(=O)N[C@@H](CCCNC(=N)N)C(=O)N[C@@H](CC(C)C)C(=O)N3CCC[C@H]3C(=O)N2)C(=O)CCSC[C@@H](C(N)=O)NC(=O)C[C@H](CCCNC(=N)N)NC1=O` [FXII900] (H-[dR][dS]C[Phe(4-F)]RLPCHQL[β3hR]C-NH2; linker 3-8-13 via TATA), the “Residual activity of FXIa” value (factor XIa; [1]) is reported as 100.642%, the remaining activity at 0.0390625 µM (factor XIa; inhibitor 39.0625 nM, read-out: Residual activity of FXIa) is reported as 96.6% and the “Residual activity of FXIa” value (factor XIa; [2]) is reported as 103.852%. For the same compound, the remaining activity at 0.078125 µM (factor XIa; inhibitor 78.125 nM, read-out: Residual activity of FXIa) was 93.8%, the “Residual activity of FXIa” value (factor XIa; [3]) was 98.179% and the remaining activity at 0.15625 µM (factor XIa; inhibitor 156.25 nM, read-out: Residual activity of FXIa) was 94.7%. For the same compound, the “Residual activity of FXIa” value (factor XIa; inhibitor 312.5 nM, 0.3125 µM) was 98.2463%, the remaining activity at 0.3125 µM (factor XIa; inhibitor 312.5 nM, read-out: Residual activity of FXIa) was 97.5% and the “Residual activity of FXIa” value (factor XIa; inhibitor 625 nM, 0.625 µM) was 97.4314%. The remaining activity at 0.625 µM (factor XIa; inhibitor 625 nM, read-out: Residual activity of FXIa) was 94.9%, the “Residual activity of FXIa” value (factor XIa; inhibitor 1250 nM, 1.25 µM) was 98.4364% and the remaining activity at 1.25 µM (factor XIa; inhibitor 1250 nM, read-out: Residual activity of FXIa) was 94.1%. For the same compound, the “Residual activity of FXIa” value (factor XIa; inhibitor 2500 nM, […]) was 98.6547%, the remaining activity at […] (factor XIa; inhibitor 2500 nM, read-out: Residual activity of FXIa) was 91.5% and the “Residual activity of FXIa” value (factor XIa; inhibitor 5000 nM, 5 µM) was 98.6945%. The remaining activity at 5 µM (factor XIa; inhibitor 5000 nM, read-out: Residual activity of FXIa) was 98.9%, the “Residual activity of FXIa” value (factor XIa; inhibitor 10000 nM, 10 µM) was 99.1545% and the remaining activity at 10 µM (factor XIa; inhibitor 10000 nM, read-out: Residual activity of FXIa) was 97.3%. The “Residual activity of FXIa” value (factor XIa; inhibitor 20000 nM, 20 µM) was 95.8964%, the remaining activity at 20 µM (factor XIa; inhibitor 20000 nM, read-out: Residual activity of FXIa) was 96.3% and the “Residual activity of FXIa” value (factor XIa; [4]) was 95.5908% and 94.7249%. The remaining activity at 40 µM (factor XIa; inhibitor 40000 nM (40 µM), read-out: Residual activity of FXIa) was 95.1%, the Ki (factor XIa; read-out: Ki FXIa) was > 40 µM and the Ki (plasmin) was > 40 µM. For the same compound, the remaining activity at 0.0390625 µM (plasmin; inhibitor 39.0625 nM) was 101%, the “Residual activity of Plasmin” value (plasmin; [1]) was 100% and 98.04% and the remaining activity at 0.078125 µM (plasmin; inhibitor 78.125 nM) was 99.7%. For the same compound, the “Residual activity of Plasmin” value (plasmin; [2]) was 92.966% and 98.2808%, the remaining activity at 0.15625 µM (plasmin; inhibitor 156.25 nM) was 99.4% and the “Residual activity of Plasmin” value (plasmin; [3]) was 100.413% and 98.2682%. The remaining activity at 0.3125 µM (plasmin; inhibitor 312.5 nM) was 98.2%, the “Residual activity of Plasmin” value (plasmin; inhibitor 312.5 nM, 0.3125 µM) was 95.1408% and 95.4545% and the remaining activity at 0.625 µM (plasmin; inhibitor 625 nM) was 98.8%. For the same compound, the “Residual activity of Plasmin” value (plasmin; inhibitor 625 nM, 0.625 µM) was 96.2495% and 97.8119%, the remaining activity at 1.25 µM (plasmin; inhibitor 1250 nM) was 95.1% and the “Residual activity of Plasmin” value (plasmin; inhibitor 1250 nM, 1.25 µM) was 99.629% and 97.1835%. For the same compound, the remaining activity at […] (plasmin; inhibitor 2500 nM) was 92%, the remaining activity at 5 µM (plasmin; inhibitor 5000 nM) was 96% and the “Residual activity of Plasmin” value (plasmin; inhibitor 5000 nM, 5 µM) was 97.8045% and 97.3192%. For the same compound, the remaining activity at 10 µM (plasmin; inhibitor 10000 nM) was 93.7%, the “Residual activity of Plasmin” value (plasmin; inhibitor 10000 nM, 10 µM) was 101.477% and 94.8276% and the remaining activity at 20 µM (plasmin; inhibitor 20000 nM) was 87.5%. The “Residual activity of Plasmin” value (plasmin; inhibitor 20000 nM, 20 µM) was 91.7224% and 90.5875%, the remaining activity at 40 µM (plasmin; inhibitor 40000 nM (40 µM)) was 86 ± 5% and the “Residual activity of Plasmin” value (plasmin; [4]) was 82.6102% and 91.6986% and 84.2986%. For the same compound, the Ki (trypsin) was 1.46 µM, the remaining activity at 0.0390625 µM (trypsin; inhibitor 39.0625 nM) was 99% and the “Residual activity of Trypsin” value (trypsin; [1]) was 98.1138%. The remaining activity at 0.078125 µM (trypsin; inhibitor 78.125 nM) was 100%, the “Residual activity of Trypsin” value (trypsin; [2]) was 99.9393% and the remaining activity at 0.15625 µM (trypsin; inhibitor 156.25 nM) was 91.6%. The “Residual activity of Trypsin” value (trypsin; [3]) was 92.2203%, the remaining activity at 0.3125 µM (trypsin; inhibitor 312.5 nM) was 86% and the “Residual activity of Trypsin” value (trypsin; inhibitor 312.5 nM, 0.3125 µM) was 88.4651%. The remaining activity at 0.625 µM (trypsin; inhibitor 625 nM) was 77.9%, the “Residual activity of Trypsin” value (trypsin; inhibitor 625 nM, 0.625 µM) was 73.7094% and the remaining activity at 1.25 µM (trypsin; inhibitor 1250 nM) was 64%. For the same compound, the “Residual activity of Trypsin” value (trypsin; inhibitor 1250 nM, 1.25 µM) was 61.5181%, the remaining activity at […] (trypsin; inhibitor 2500 nM) was 47.5% and the “Residual activity of Trypsin” value (trypsin; inhibitor 2500 nM, […]) was 46.5602%. The remaining activity at 5 µM (trypsin; inhibitor 5000 nM) was 34.6%, the “Residual activity of Trypsin” value (trypsin; inhibitor 5000 nM, 5 µM) was 30.2825% and the remaining activity at 10 µM (trypsin; inhibitor 10000 nM) was 21%. The “Residual activity of Trypsin” value (trypsin; inhibitor 10000 nM, 10 µM) was 19.2935%, the remaining activity at 20 µM (trypsin; inhibitor 20000 nM) was 12.9% and the “Residual activity of Trypsin” value (trypsin; inhibitor 20000 nM, 20 µM) was 12.2739%. The remaining activity at 40 µM (trypsin; inhibitor 40000 nM (40 µM)) was 9.2%, the “Residual activity of Trypsin” value (trypsin; [4]) was 9.912% and 8.397% and the Ki (plasma kallikrein) was > 40 µM. The remaining activity at 0.0390625 µM (plasma kallikrein; inhibitor 39.0625 nM) was 98.1%, the “Residual activity of Plasma kallikrein” value (plasma kallikrein; [1]) was 100.436% and the remaining activity at 0.078125 µM (plasma kallikrein; inhibitor 78.125 nM) was 98.4%. For the same compound, the “Residual activity of Plasma kallikrein” value (plasma kallikrein; [2]) was 99.938%, the remaining activity at 0.15625 µM (plasma kallikrein; inhibitor 156.25 nM) was 98.9% and the “Residual activity of Plasma kallikrein” value (plasma kallikrein; [3]) was 99.0018%. For the same compound, the remaining activity at 0.3125 µM (plasma kallikrein; inhibitor 312.5 nM) was 102%, the “Residual activity of Plasma kallikrein” value (plasma kallikrein; inhibitor 312.5 nM, 0.3125 µM) was 98.8676% and the remaining activity at 0.625 µM (plasma kallikrein; inhibitor 625 nM) was 101%. For the same compound, the “Residual activity of Plasma kallikrein” value (plasma kallikrein; inhibitor 625 nM, 0.625 µM) was 98.0454%, the remaining activity at 1.25 µM (plasma kallikrein; inhibitor 1250 nM) was 101% and the “Residual activity of Plasma kallikrein” value (plasma kallikrein; inhibitor 1250 nM, 1.25 µM) was 97.0056%. The remaining activity at […] (plasma kallikrein; inhibitor 2500 nM) was 96%, the “Residual activity of Plasma kallikrein” value (plasma kallikrein; inhibitor 2500 nM, […]) was 95.4747% and the remaining activity at 5 µM (plasma kallikrein; inhibitor 5000 nM) was 92.8%. The “Residual activity of Plasma kallikrein” value (plasma kallikrein; inhibitor 5000 nM, 5 µM) was 93.0245%, the remaining activity at 10 µM (plasma kallikrein; inhibitor 10000 nM) was 91.9% and the “Residual activity of Plasma kallikrein” value (plasma kallikrein; inhibitor 10000 nM, 10 µM) was 91.0418%. The remaining activity at 20 µM (plasma kallikrein; inhibitor 20000 nM) was 84.1%, the “Residual activity of Plasma kallikrein” value (plasma kallikrein; inhibitor 20000 nM, 20 µM) was 81.6415% and the remaining activity at 40 µM (plasma kallikrein; inhibitor 40000 nM (40 µM)) was 72%. For the same compound, the “Residual activity of Plasma kallikrein” value (plasma kallikrein; [4]) was 73.9098% and 69.1761%.

Source: publication PMC7403315, “Cyclic peptide FXII inhibitor provides safe anticoagulation in a thrombosis model and in artificial lungs” (Nature Communications, 2020)
